Values quoted from earlier work in patent US20080161385A1, “Composition Inhibiting Sex Hormone-Binding Globulin” (FUJI OIL COMPANY, LIMITED, priority 2004, published 2008).

Test system: SHBG
Conditions: cell test, literature

For O=c1c(-c2ccc(O)cc2)coc2cc(O)cc(O)c12 [genistein], the “Production of SHBG” value is given as “stimulates production of SHBG”.
